Test results from ChEMBL document CHEMBL1145124, “Identification and prediction of promiscuous aggregating inhibitors among known drugs” (J Med Chem, 2003).

Legend:
Chymotrypsinogen A [1] = target: T1, Chymotrypsinogen A (Bos taurus, UniProt P00766); assay: Compound was tested for the inhibition of Chymotrypsinogen
Beta-lactamase [2] = target: T2, Beta-lactamase (Escherichia coli K-12, UniProt P00811); assay: Compound was tested for the inhibition of beta-lactamase
[3] = target: Beta-lactamase (Escherichia coli K-12) (UniProt P00811); assay: Inhibition of beta-lactamase at 100 uM
[4] = target: T3, Chymotrypsin-C (Homo sapiens) (UniProt Q99895); assay: Inhibition of chymotrypsin at 250 uM; conditions: unidentified
T3 sequence (whole entry): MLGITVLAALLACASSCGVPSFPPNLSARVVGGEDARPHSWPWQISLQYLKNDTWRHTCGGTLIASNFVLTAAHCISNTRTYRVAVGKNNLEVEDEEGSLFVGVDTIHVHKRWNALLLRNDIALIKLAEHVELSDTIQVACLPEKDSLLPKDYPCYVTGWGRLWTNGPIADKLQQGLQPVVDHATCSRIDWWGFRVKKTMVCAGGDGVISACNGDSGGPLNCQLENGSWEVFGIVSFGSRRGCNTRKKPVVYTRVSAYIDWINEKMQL

[5] = target: T4, Malate dehydrogenase, cytoplasmic (Homo sapiens) (UniProt P40925); assay: Inhibition of malate dehydrogenase (MDH) at 400 uM
T4 sequence (whole entry): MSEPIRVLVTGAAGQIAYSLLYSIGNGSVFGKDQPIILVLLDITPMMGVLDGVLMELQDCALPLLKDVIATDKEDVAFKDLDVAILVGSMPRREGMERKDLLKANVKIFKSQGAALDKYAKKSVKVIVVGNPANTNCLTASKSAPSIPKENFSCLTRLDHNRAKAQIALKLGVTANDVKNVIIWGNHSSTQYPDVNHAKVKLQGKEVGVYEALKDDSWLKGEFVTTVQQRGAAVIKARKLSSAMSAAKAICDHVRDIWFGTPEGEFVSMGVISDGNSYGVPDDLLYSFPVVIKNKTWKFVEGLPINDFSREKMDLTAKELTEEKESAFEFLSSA

[6] = target: T5, Malate dehydrogenase, mitochondrial (Sus scrofa) (UniProt P00346); assay: Compound was tested for the inhibition of malate dehydrogenase (MDH) at 200 uM
T5 sequence (whole entry): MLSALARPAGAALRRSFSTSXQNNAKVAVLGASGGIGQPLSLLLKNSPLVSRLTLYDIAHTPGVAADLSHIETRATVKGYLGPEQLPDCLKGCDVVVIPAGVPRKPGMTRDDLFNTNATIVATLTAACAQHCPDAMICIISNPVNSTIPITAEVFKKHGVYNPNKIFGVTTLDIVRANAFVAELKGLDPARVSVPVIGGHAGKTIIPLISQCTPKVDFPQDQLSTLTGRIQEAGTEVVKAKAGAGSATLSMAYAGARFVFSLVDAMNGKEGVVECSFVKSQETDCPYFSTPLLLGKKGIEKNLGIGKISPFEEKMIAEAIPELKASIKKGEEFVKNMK

Chymotrypsinogen A [7] = target: T1, Chymotrypsinogen A; assay: Fold decrease in IC50 vs chymotrypsinogen on pre-incubation; increase
[8] = Mean maximal plasma concentration; type: ADME, organism-based
[9] = Topical dosage on […] scabies; type: functional
Beta-lactamase [10] = target: T2, Beta-lactamase; assay: Effect of pre-incubation with enzyme on the inhibition of beta-lactamase:No inhibition
Beta-lactamase [11] = target: T2, Beta-lactamase; assay: Compound was tested for the inhibition beta-lactamase with 0.1 mg/ml saponin:No inhibition
Beta-lactamase [12] = target: T2, Beta-lactamase; assay: Effect of increase in enzyme concentration by 10 times on the inhibition of beta-lactamase by the compound:No inhibition
[13] = target: T6, Malate dehydrogenase, mitochondrial (Sus scrofa, UniProt P00346); assay: Fold increase in IC50 vs malate dehydrogenase (MDH) with 1 mg/ml saponin; increase
T6 sequence (P00346 whole entry): T5 sequence (whole entry)

[14] = target: Chymotrypsinogen A (Bos taurus) (UniProt P00766); assay: Compound was tested for the inhibition of Chymotrypsinogen at 400 uM
[15] = target: T6, Malate dehydrogenase, mitochondrial; assay: Fold decrease in IC50 vs malate dehydrogenase (MDH) on pre-incubation; no change
[16] = target: T5, Malate dehydrogenase, mitochondrial (Sus scrofa); assay: Compound was tested for the inhibition of malate dehydrogenase (MDH) at 100 uM
[17] = target: Chymotrypsinogen A (Bos taurus) (UniProt P00766); assay: Compound was tested for the inhibition of Chymotrypsinogen at 250 uM (Inhibition is time dependent)
[18] = target: T5, Malate dehydrogenase, mitochondrial (Sus scrofa); assay: Compound was tested for the inhibition of malate dehydrogenase (MDH) at 50 uM

Sequence of Beta-lactamase (Escherichia coli K-12) (P00811 whole entry): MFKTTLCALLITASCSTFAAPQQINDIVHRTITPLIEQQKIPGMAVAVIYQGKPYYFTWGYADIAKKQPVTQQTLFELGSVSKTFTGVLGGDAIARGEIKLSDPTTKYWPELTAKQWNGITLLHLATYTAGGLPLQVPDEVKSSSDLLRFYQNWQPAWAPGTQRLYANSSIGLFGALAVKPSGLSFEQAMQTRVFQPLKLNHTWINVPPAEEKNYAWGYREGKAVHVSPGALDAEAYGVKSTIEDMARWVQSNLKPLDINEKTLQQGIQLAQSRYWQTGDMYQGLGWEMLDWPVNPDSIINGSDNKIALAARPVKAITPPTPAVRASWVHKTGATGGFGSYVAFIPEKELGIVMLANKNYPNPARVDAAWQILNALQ
T2 sequence (P00811 whole entry): as above

Compound	inhibition [3] [%]	inhibition [4] [%]	inhibition [5] [%]	further results
Clc1ccc(COC(Cn2ccnc2)c2ccc(Cl)cc2Cl)c(Cl)c1 (stereo unspecified) [MICONAZOLE]	–	–	–	IC50 (Chymotrypsinogen A [1]): 125 µM; IC50 (Beta-lactamase [2]): 40 µM
NCCNCCNCCNCCN	< 5	< 5	< 5	–
Nc1ccc(/N=N/c2ccccc2)c(N)n1	< 5	96	34	–
NS(=O)(=O)c1cc(C2(O)NC(=O)c3ccccc32)ccc1Cl (stereo unspecified)	< 5	< 5	–	inhibition [6]: < 5%
O=C(O)CCc1nc(-c2ccccc2)c(-c2ccccc2)o1 [OXAPROZIN]	–	–	–	IC50 (Chymotrypsinogen A [1]): 200 µM; IC50 (Chymotrypsinogen A [7]): Increase; IC50 (Beta-lactamase [2]): > 400 µM; Cmax [8]: 372 µM
Nc1nnc(-c2cccc(Cl)c2Cl)c(N)n1	< 5	< 5	11	–
Nc1ccc(O)c(C(=O)O)c1	< 5	< 5	–	inhibition [6]: 18%
Cc1cccc(Nc2ccncc2S(=O)(=O)NC(=O)NC(C)C)c1	< 5	< 5	14	–
Clc1ccc(CSC(Cn2ccnc2)c2ccc(Cl)cc2Cl)cc1 (stereo unspecified) [SULCONAZOLE]	–	–	–	IC50 (Chymotrypsinogen A [1]): 110 µM
COC(=O)Nc1nc2cc(C(=O)c3ccccc3)ccc2[nH]1	< 5	< 5	15	–
CC(C)Nc1cccnc1N1CCN(C(=O)c2cc3cc(NS(C)(=O)=O)ccc3[nH]2)CC1 [DELAVIRDINE]	–	–	–	IC50 (Chymotrypsinogen A [1]): 225 µM; IC50 (Beta-lactamase [2]): 90 µM
Cc1nccn1CC1CCc2c(c3ccccc3n2C)C1=O (stereo unspecified)	< 5	< 5	< 5	–
CCc1cccc2c3c([nH]c12)C(CC)(CC(=O)O)OCC3 (stereo unspecified)	< 5	< 5	9	–
Nc1ccc(S(=O)(=O)Nc2ncccn2)cc1	< 5	< 5	–	inhibition [6]: < 5%
COc1cc(Cc2cnc(N)nc2N)cc(OC)c1OC	< 5	< 5	< 5	–
COc1ccc2[nH]c([S+]([O-])Cc3ncc(C)c(OC)c3C)nc2c1 (stereo unspecified)	< 5	< 5	< 5	–
O=C(OCc1ccccc1)c1ccccc1 [BENZYL BENZOATE]	–	–	–	IC50 (Chymotrypsinogen A [1]): 250 µM; Topical dosage [9]: 1.2 M; IC50 (Beta-lactamase [2]): 90 µM
Nc1c2c(nc3ccccc13)CCCC2	< 5	< 5	83	–
CC(=O)N1CCN(c2ccc(OCC3COC(Cn4ccnc4)(c4ccc(Cl)cc4Cl)O3)cc2)CC1 (stereo unspecified) [KETOCONAZOLE]	–	–	–	IC50 (Beta-lactamase [10]): Not Active; IC50 (Chymotrypsinogen A [1]): > 150 µM; IC50 (Beta-lactamase [11]): Not Active; IC50 (Beta-lactamase [2]): > 150 µM; IC50 (Beta-lactamase [12]): Not Active
O=C(O)CCCCCCCC(=O)O	< 5	< 5	8	–
Cc1cccc(Nc2ccccc2C(=O)O)c1C [MEFENAMIC ACID]	–	–	–	IC50 [13]: increase; IC50 (Beta-lactamase [2]): 350 µM; Cmax [8]: 83 µM; inhibition [14]: 41%
CCCC(C)(COC(N)=O)COC(=O)NC(C)C (stereo unspecified)	< 5	< 5	< 5	–
NC(=O)N1c2ccccc2C=Cc2ccccc21	< 5	< 5	8	–
COc1ccc2c(c1)c(CC(=O)O)c(C)n2C(=O)c1ccc(Cl)cc1	< 5	< 5	7	–
CN(C)CCN(Cc1ccccc1)c1ccccn1	< 5	< 5	< 5	–
COC(=O)C1=C(C)NC(C)=C(C(=O)OCCN(C)Cc2ccccc2)C1c1cccc([N+](=O)[O-])c1 (stereo unspecified) [NICARDIPINE]	–	–	–	IC50 (Chymotrypsinogen A [1]): 175 µM; IC50 [15]: Not Active; Cmax [8]: 0.184 µM
NS(=O)(=O)c1cc(C(=O)O)c(NCc2ccco2)cc1Cl	< 5	< 5	21	–
CC(C)C(=O)Nc1ccc([N+](=O)[O-])c(C(F)(F)F)c1	< 5	< 5	–	inhibition [16]: < 5%

Compound	inhibition [3] [%]	inhibition [4] [%]	inhibition [5] [%]	further results
O=C1CCC(N2C(=O)c3ccccc3C2=O)C(=O)N1 (stereo unspecified)	< 5	< 5	< 5	–
CNCCCC1c2ccccc2C=Cc2ccccc21	< 5	< 5	< 5	–
Cc1cc2nc3c(=O)[nH]c(=O)nc-3n(C[C@H](O)[C@H](O)[C@H](O)CO)c2cc1C	< 5	< 5	–	inhibition [16]: < 5%
Cc1ccc(C)c(OCCCC(C)(C)C(=O)O)c1	< 5	< 5	–	inhibition [6]: 14%
CCC1(c2ccccc2)C(=O)NCNC1=O	< 5	< 5	13	–
CCN(CC)CC(=O)Nc1c(C)cccc1C	< 5	< 5	< 5	–
O=C1C(CC[S+]([O-])c2ccccc2)C(=O)N(c2ccccc2)N1c1ccccc1 (stereo unspecified)	< 5	27	83	–
COc1ccc(Cl)cc1C(=O)NCCc1ccc(S(=O)(=O)NC(=O)NC2CCCCC2)cc1 [GLYBURIDE]	–	–	–	IC50 (Chymotrypsinogen A [1]): 360 µM; IC50 (Beta-lactamase [2]): 300 µM; Cmax [8]: 0.215 µM
CC(C)[N+](C)(CCOC(=O)C1c2ccccc2Oc2ccccc21)C(C)C	< 5	–	< 5	inhibition [17]: 96%
Clc1ccccc1C(c1ccccc1)(c1ccccc1)n1ccnc1 [CLOTRIMAZOLE]	–	–	–	IC50 (Chymotrypsinogen A [1]): 85 µM; IC50 (Chymotrypsinogen A [7]): Increase; IC50 (Beta-lactamase [2]): 20 µM
Clc1ccc(COC(Cn2ccnc2)c2ccc(Cl)cc2Cl)cc1 (stereo unspecified) [ECONAZOLE]	–	–	–	IC50 (Chymotrypsinogen A [1]): 150 µM; IC50 (Beta-lactamase [2]): 25 µM
O=C1CN(/N=C/c2ccc([N+](=O)[O-])o2)C(=O)N1	< 5	91	97	–
COc1ccccc1OCC(O)CO (stereo unspecified)	< 5	< 5	< 5	–
COc1cc2nc(N3CCN(C(=O)c4ccco4)CC3)nc(N)c2cc1OC	13	< 5	–	inhibition [16]: 14%
OC(Cn1cncn1)(Cn1cncn1)c1ccc(F)cc1F [FLUCONAZOLE]	–	–	–	IC50 (Beta-lactamase [10]): Not Active; IC50 (Chymotrypsinogen A [1]): > 400 µM; IC50 (Beta-lactamase [11]): Not Active; IC50 (Beta-lactamase [2]): > 400 µM; IC50 (Beta-lactamase [12]): Not Active
CCn1nc(C(=O)O)c(=O)c2cc3c(cc21)OCO3	< 5	< 5	–	inhibition [18]: < 5%
Nc1nc(N)c2nc(-c3ccccc3)c(N)nc2n1	< 5	< 5	–	inhibition [18]: 21%
CN(C)CCOC(c1ccccc1)c1ccccc1	< 5	< 5	< 5	–
N=C(N)N/N=C/c1c(Cl)cccc1Cl	83	< 5	20	–
Nc1cc(-c2ccncc2)c[nH]c1=O	< 5	< 5	–	inhibition [18]: < 5%
Nc1nc2ccc(OC(F)(F)F)cc2s1	< 5	< 5	–	inhibition [6]: < 5%
O=C(O)c1cc(-c2ccc(F)cc2F)ccc1O	< 5	13	< 5	–
Nc1ccc(S(=O)(=O)c2ccc(N)cc2)cc1	< 5	< 5	11	–
O=C(O)CCCc1ccc(N(CCCl)CCCl)cc1	< 5	23	44	–
Cc1c(OCC(F)(F)F)ccnc1C[S+]([O-])c1nc2ccccc2[nH]1 (stereo unspecified)	< 5	< 5	< 5	–
CC(=O)N(O)CCCCCNC(=O)CCC(=O)N(O)CCCCCNC(=O)CCC(=O)N(O)CCCCCN	< 5	< 5	< 5	–
Cc1oncc1C(=O)Nc1ccc(C(F)(F)F)cc1	< 5	< 5	12	–
